In the METLIN SMRT retention time set (Domingo-Almenara et al. 2019):

Test: gradient 5% acetonitrile 3 min, to 50% in 2 min, to 85% in 15 min, held 3 min, 100 µL/min
Settings: column: Zorbax Extend-C18 2.1 x 50 mm; eluents: water / acetonitrile, 0.1% formic acid
How it was run: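 Standards, all pure, were combined into mixtures of ~100 molecules and run at 100 μL/min on a Zorbax Extend-C18 column (2.1 × 50 mm, 1.8 μm) with water and acetonitrile, each containing 0.1% formic acid. A coupled quadrupole time-of-flight mass spectrometer operated in positive and negative ionization mode. Retention time values come from computationally picked adduct peaks, each inspected manually.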

RP-LC retention time	Structure (SMILES)
909 s	Cc1ccccc1NS(=O)(=O)c1ccc(-c2nnc(C3CCC3)o2)o1
712 s	CSc1ccccc1C(=O)NCC1CN(c2ccccc2)C(=O)O1 (configuration not stated)
694 s	Cc1cc(C(=O)Nc2nnc(CCSc3ccccc3)o2)on1
662 s	COCC(=O)N1C[C@@H]2C(=O)N(CCc3ccccc3)C(=O)[C@@H]2C1
955 s	Cn1cc2c3c(cccc31)CN(C(=O)c1cc(F)cc(F)c1)CC2
797 s	CCOCCCNC(=O)c1cc2n(n1)CCCN(Cc1ccc(Cl)cc1)C2=O
855 s	COc1ccc(Br)cc1CNC(=O)Cn1cc(-c2nnco2)c2ccccc21
1210 s	Cc1nc(-c2cc(S(=O)(=O)N3CCN(c4ccccc4F)CC3)c(C)s2)cs1
753 s	Cc1oc(C2CCN(C(=O)Nc3ccccc3F)CC2)nc1C(=O)N1CCCC1
1230 s	Cc1ccc(-c2coc(-c3ccc(NC(=O)c4ccc(Br)o4)cc3)n2)cc1
887 s	CN(C)c1ccc(-c2nc3cnccn3c2Nc2cccc(C(F)(F)F)c2)cc1
668 s	Cc1ccccc1CNC(=O)C(=O)NCC(c1ccc2c(c1)OCO2)N1CCOCC1 (configuration not stated)
786 s	CN(c1nccn2c(=O)n(CC(=O)Nc3cc(F)ccc3F)nc12)C1CCCCC1
1060 s	O=S(=O)(c1ccc(F)cc1)N1CCC(OCCOCc2ccccc2)CC1
737 s	O=C(Nc1ccc(N2CCN(Cc3ccccc3)C2=O)nc1)C1CCC1
762 s	COC(=O)c1ncn2c1C(=O)N(Cc1ccccc1Cl)C(C)(C(=O)NCc1ccccc1)C2 (configuration not stated)
572 s	Cc1ccc(C)c(NC(=O)N2CCN(c3nc(C)cc(N(C)C)n3)CC2)c1
1010 s	Cc1ccc(C)c(NC(=O)N2CCCC2c2nc(-c3ccc(F)cc3F)no2)c1 (configuration not stated)
1170 s	Cc1ccc(NC(=O)CCc2nc(-c3ccc(N4CCCC4)cc3)no2)c(Br)c1
882 s	COc1cccc(N2CCN(Cc3nc(-c4ccc(N5CCCC(C)C5)nc4)no3)CC2)c1 (configuration not stated)
819 s	Cc1ccc(N2CC(c3noc(-c4ccccc4)n3)CC2=O)cc1 (configuration not stated)
719 s	CC(C)NC(=O)C1CCCN(c2nc3ncn(CC(=O)Nc4ccc(Cl)cc4)c(=O)c3s2)C1 (configuration not stated)

RP-LC retention time	Structure (SMILES)
814 s	Cc1cccc(NC(=O)NC2CCN(c3ccccc3)C2=O)c1 (configuration not stated)
670 s	Cc1sc(-c2ccn[nH]2)cc1NC(=O)c1ccc2nc[nH]c2c1
629 s	COc1cc(Nc2nc(C(=O)NCCN(C)C)cc3occc23)cc(OC)c1OC
619 s	Cn1cc(-c2cc3n(n2)CCC(=O)N3CCCC(=O)N2CCN(c3ccccn3)CC2)c2ccccc21
853 s	Cc1cc(-c2nnc(NC(=O)NCc3ccc(Cl)cc3)o2)c(C)o1
686 s	CCC(C)NC(=O)C1CC(=O)N(c2ccc3c(c2)CCN3C(=O)C2CC2)C1 (configuration not stated)
782 s	Cc1ccc(NC(=O)Cn2ncc3c(c2=O)N(CC2CC2)C(=O)CS3)c(C)c1
860 s	Cc1nnc2ccc(N3CCC(C(=O)N4CCN(c5cccc(Cl)c5)CC4)CC3)nn12
967 s	CCCCc1ccc(NC(=O)CSc2cc(N3CCC(C(=O)NCCC)CC3)ncn2)cc1
1100 s	CCOc1ccc(-c2noc(Cc3nnc(-c4cc(F)cc(F)c4)o3)n2)cc1
698 s	CCn1c(N)c(C(=O)NC)c(=O)c2ccc(C#C[C@@](C)(O)COC)nc21
945 s	CCC(CC)C(=O)NCC(c1ccc(Br)cc1)c1c[nH]c2ccccc12 (configuration not stated)
739 s	Cc1cc(C(F)(F)F)nn1CC(=O)NCC12CCC=C1N(C)C(=O)CC2 (configuration not stated)
646 s	Cn1ncc2c3ccccc3n(CCCC(=O)N3CCN(Cc4ccccc4)CC3)c2c1=O
778 s	CCC(=O)N1CCc2c(C(=O)N3CCN(c4ccc(OC)cc4)CC3)cccc21
1080 s	CCOC(=O)c1ccsc1NC(=O)c1cc(C)nn1CC
918 s	CC(C)n1nc(CNC(=O)C2CCN(S(=O)(=O)c3ccccc3)CC2)c2ccccc21
1330 s	Cc1ccc(Cl)cc1NS(=O)(=O)c1cc(-c2nc(C(C)(C)C)cs2)cs1
754 s	CCOc1ccc(CN2C(=O)C3(CCOCC3)CC2c2nnnn2C(C)(C)C)cc1OC (configuration not stated)
770 s	Cc1ccc2ncn(C3CCN(C(=O)Nc4ccc(F)cc4F)CC3)c(=O)c2c1
585 s	CCOC(=O)N1CCN(C(=O)CSc2ccc3nnc(-c4cccnc4)n3n2)CC1
898 s	CCn1cc(-c2ccc(C)cc2)cc1C(=O)O

RP-LC retention time	Structure (SMILES)
748 s	CC(C)Cn1c(-c2ccc(N(C)C)cc2)nc2ccccc21
1110 s	O=C(NCc1ccco1)c1scc(-c2ccc(F)cc2)c1-n1cccc1
883 s	Cc1cc(C)cc(NC(=O)Cn2ncc3c(c2=O)N(CC2CC2)C(=O)CS3)c1
623 s	O=C(Nc1ccccc1-c1nc2ccccc2[nH]1)C1CC1
682 s	COC(=O)c1cnc2nc(C)ccc2c1Nc1ccc(OC)c(Cl)c1
1010 s	COc1ccc(N2C(=O)C3N=NN(c4ccc(F)c(Cl)c4)C3C2=O)cc1 (configuration not stated)
632 s	Cc1cccc2c1cnn2C(=O)CCC(=O)N1CCN(c2ccccn2)CC1
732 s	Cc1cc(N2CCN(c3ccccn3)CC2)n2ncc(-c3ccccc3Cl)c2n1
1170 s	CCn1c(=O)c(C)nc2cc(-c3noc(-c4cccc(N(C)C)c4)n3)ccc21
678 s	CCc1nc(-c2ccnc(N3CCOCC3)c2)no1
616 s	O=C(C1CCCC1)N1CCC(CCOc2ccncc2)CC1
572 s	C=CCN1CCN(C(=O)C2CCN(c3cc(Nc4ccc(C)cc4)ncn3)CC2)CC1
613 s	CCc1nccn1Cc1noc(-c2ccccc2F)n1
589 s	Cc1ccc(NC(=O)N2CCC(CCN)CC2)cc1
907 s	CC(NC(=O)Nc1ccccc1C(F)(F)F)C(=O)N1CCc2ccccc21 (configuration not stated)
665 s	O=C(Cn1cnc2nc(N3CCC(C(=O)NC4CC4)CC3)sc2c1=O)Nc1ccccc1Cl
1130 s	Cc1nc(-c2cn(C)c3ncccc23)sc1C(=O)Nc1ccc(F)cc1
583 s	O=C(NCc1cccnc1)C1CCN(c2ncnc3c2oc2ccccc23)CC1
993 s	CCCC(=O)Nc1nc(-c2ccc(Br)s2)cs1
1040 s	c1ccc2c(OCc3nc4c5ccccc5ncn4n3)cccc2c1
618 s	CCN1CCN(c2cc(C(=O)O)c3cc(NS(=O)(=O)c4ccccc4C)ccc3n2)CC1
579 s	O=C(Nc1ccc(C(=O)NCCCN2CCN(C3CCCCC3)CC2)cc1)C1=CSCCO1

Structure (SMILES)	RP-LC retention time
CCN(CC)C(=O)c1ccc2c(c1)N(CC(=O)NC1CCCCC1)C(=O)C1CCCCN21 (configuration not stated)	838 s
